In patent US12162819B2, “Ionizable lipid compounds” (Beijing Jitai Pharmaceutical Technology Co., Ltd., priority 2022, dated 2024):

Assays:
[1] = Encapsulation efficiency of lipid nanoparticles, Quant-It RiboGreen RNA Assay; assay type: physicochemical; conditions: lipid nanoparticle with the cationic lipid, luciferase mRNA
Experimental: (§1) Lipid nanoparticles were prepared by (1) dissolving and mixing ionizable lipid compounds, cholesterol, phospholipids and polyethylene glycolated lipids in ethanol at (molar percentages) 50%, 38.5%, 10% and 1.5%, respectively; (2) dissolving the mRNA active ingredient in 25 mM sodium acetate solution (pH=4.5); (3) using an automated high-throughput microfluidic system to mix the organic phase containing the lipid mixture and the aqueous phase containing the mRNA component in the flow ratio range of 1:1 to 1:4 at a mixing speed of 10 mL/min to 18 mL/min; (4) the prepared lipid nanoparticles (N/P ratio of 6) were diluted with phosphate buffer solution and the nanoparticle solutions were ultrafiltered to the original preparation volume using ultrafiltration tubes (purchased from Millipore) with a cut-off molecular weight of 30 kDa; and (5) the obtained nanoparticles were filtered through a sterile 0.2 μm filter membrane and then stored in a sealed glass vial at low temperature.
(§2) The particle size and particle size dispersity index (PDI) of the prepared lipid nanoparticles were measured using a Zetasizer Pro (purchased from Malvern Instruments Ltd) and a DynaPro NanoStar (purchased from Wyatt) dynamic light scattering instrument. The degree of RNA encapsulation by lipid nanoparticles was characterized by the Encapsulation Efficiency %, which reflects the degree of binding of lipid nanoparticles to RNA fragments. This parameter was measured by the method of Quant-It™ RiboGreen RNA Assay (purchased from Invitrogen). Lipid nanoparticle samples were diluted in TE buffer (10 mM Tris-HCl, 1 mM EDTA, pH=7.5). A portion of the sample solution was removed, to which 0.5% Triton (Triton X-100) was added, and then allowed to stand at 37° C. for 30 minutes. Immediately after the addition of RIBOGREEN® reaction solution, the fluorescence values were read on a Varioskan LUX multifunctional microplate reader (purchased from Thermofisher) at 485 nm for absorption and 528 nm for emission to give the encapsulation efficiency values.

C57BL/6 mice = experiment: In vivo bioluminescence assay of lipid nanoparticles encapsulated with luciferase mRNA in mice; conditions: C57BL/6 mice, intravenous, single dose 0.5 mg/kg luciferase mRNA in LNP, 6 h after administration, group mean
Experimental: as §1
The delivery effect and safety of nanoparticles encapsulated with luciferase mRNA (Trilink, L-7202) in mice were evaluated. The test mice were SPF-grade C57BL/6 mice, female, 6-8 weeks old, weighing 18-22 g, and were purchased from SPF (Beijing) Biotechnology Co., Ltd. All animals were acclimatized for more than 7 days prior to the experiment, and had free access to food and water during the experiment. The conditions include alternating light and dark for 12/12 h, the indoor temperature of 20-26° C. and the humidity of 40-70%. The mice were randomly grouped. The lipid nanoparticles encapsulated with luciferase mRNA prepared above were injected into mice by intravenous administration at a single dose of 0.5 mg/kg mRNA, and the mice were subjected to in vivo bioluminescence assay using a Small Animal In Vivo Imaging System (IVIS LUMINA III, purchased from PerkinElmer) at 6 h after administration. The assay was performed as follows: D-luciferin solution was prepared in saline at a concentration of 15 mg/mL, and each mouse was given the substrate by intraperitoneal injection. At ten minutes after administration of the substrate, the mice were anesthetized in an anesthesia chamber with isoflurane at a concentration of 2.5%. The anesthetized mice were placed in IVIS for fluorescence imaging, and data acquisition and analysis were performed on the concentrated distribution area of fluorescence.
The in vivo delivery efficiency of lipid nanoparticle carriers was expressed as the mean values of fluorescence intensity and total photon count in different animals within the same subject group, as shown in Table 5. Higher values of fluorescence intensity and total photon count indicate higher in vivo delivery efficiency of this mRNA fragment by lipid nanoparticles. The lipid nanoparticles containing the cationic lipids of the present disclosure have good in vivo delivery efficiency.

[2] = Particle size and PDI of lipid nanoparticles by dynamic light scattering; assay type: physicochemical; conditions: lipid nanoparticle with the cationic lipid, cholesterol, DSPC, DMG-PEG2000 (50/38.5/10/1.5 mol%), luciferase mRNA, N/P 6
Experimental: as §1, §2

Structure (SMILES) | Encapsulation efficiency (%) [1] [%] | Total photon count in vivo at 6 hours after administration (Total Flux) (C57BL/6 mice) | Particle size (nm) [2] [nm] | Particle size dispersity (PDI) [2]
CCCCCCCCCCNC(=O)C(C)(C)CCCCCC(CCCCCC(C)(C)C(=O)NCCCCCCCCCC)OC(=O)CN(C)C [Compound 13] | 56.65 | 1.08E+06 | 157.10 | 0.08
CCCCCCCCCCNC(=O)C(C)(C)CCCCCC(CCCCCC(C)(C)C(=O)NCCCCCCCCCC)OC(=O)CCCN(C)C [Compound 14] | 45.66 | 6.34E+07 | 306.07 | 0.08
CCCCCCCCN(CCCCCCCC)CCOC(=O)C(C)(C)CCCCCC(CCCCCC(C)(C)C(=O)OCCN(CCCCCCCC)CCCCCCCC)OC(=O)CCN(C)C [Compound 15] | 84.78 | 4.89E+08 | 91.68 | 0.06
CCCCCCCCC(CCCCCC)OC(=O)C(C)(C)CCCCCC(CCCCCC(C)(C)C(=O)OC(CCCCCC)CCCCCCCC)OC(=O)CCN(C)C (stereo not shown) [Compound 16] | 96.52 | 3.97E+07 | 55.39 | 0.05
CCCCCCCCCCSC(=O)C(C)(C)CCCCCC(CCCCCC(C)(C)C(=O)SCCCCCCCCCC)OC(=O)C1CCN(C)CC1 [Compound 104] | 85.54 | – | 71.14 | 0.06
CCCCCCCCCCSC(=O)C(C)(C)CCCCCC(CCCCCC(C)(C)C(=O)SCCCCCCCCCC)OC(=O)C1CCN(C(C)C)CC1 [Compound 105] | 94.67 | – | 78.80 | 0.05
CCCCCCCCCSC(=O)C(C)(C)CCCCCC(CCCCCC(C)(C)C(=O)SCCCCCCCCC)OC(=O)C1CCN(C)CC1 [Compound 106] | 85.65 | – | 83.09 | 0.05
CCCCCCCCCSC(=O)C(C)(C)CCCCCC(CCCCCC(C)(C)C(=O)SCCCCCCCCC)OC(=O)C1CCN(C(C)C)CC1 [Compound 107] | 83.74 | – | 99.54 | 0.05
CCCCCCCCCSC(=O)C(C)(C)CCCCCC(CCCCCC(C)(C)C(=O)SCCCCCCCCC)OC(=O)CC1CCN(C)CC1 [Compound 108] | 92.63 | – | 121.41 | 0.05
CCCCCCCCCSC(=O)C(C)(C)CCCCCC(CCCCCC(C)(C)C(=O)SCCCCCCCCC)OC(=O)CC1CCN(CC)CC1 [Compound 109] | 87.11 | – | 101.04 | 0.06
CCCCCCCCCOC(=O)C(C)(C)CCCCCC(CCCCCC(C)(C)C(=O)OCC(CCCCC)CCCCCCC)OC(=O)CC1CCN(C)CC1 (stereo not shown) [Compound 111] | 95.12 | – | 141.30 | 0.06
CCCCCCCCCSC(=O)C(C)(C)CCCCCC(CCCCCC(C)(C)C(=O)OCC(CCCCC)CCCCCCC)OC(=O)CC1CCN(C)CC1 (stereo not shown) [Compound 112] | 94.41 | – | 121.05 | 0.08
CCCCCCCC#CCOC(=O)C(C)(C)CCCCCC(CCCCCC(C)(C)C(=O)OCCCC(CCCCC)CCCCC)OC(=O)CCCN(C)C (stereo not shown) [Compound 115] | 91.76 | – | 77.12 | 0.04
CCCCCCCC#CCOC(=O)C(C)(C)CCCCCC(CCCCCC(C)(C)C(=O)OCC(CCCCC)CCCCCCC)OC(=O)CCCN(C)C (stereo not shown) [Compound 116] | 89.36 | – | 88.62 | 0.05
CCCCC(CC#CCOC(=O)C(C)(C)CCCCCC(CCCCCC(C)(C)C(=O)OCC#CCC(CCCC)CCCC)OC(=O)CCCN(C)C)CCCC [Compound 117] | 95.29 | – | 127.31 | 0.06
CCCCCCCCCOC(=O)C(C)(C)CCCCCC(CCCCCC(C)(C)C(=O)OCC#CC(CCCCCC)CCCCCC)OC(=O)CCCN(C)C (stereo not shown) [Compound 118] | 93.87 | – | 88.33 | 0.07
CCCCCCCCCOC(=O)C(C)(C)CCCCC(CCCCC(C)(C)C(=O)OCC(CCCCC)CCCCCCC)OC(=O)CCCN(C)C (stereo not shown) [Compound 122] | 91.76 | – | 96.72 | 0.07
CCCCCCCCCCOC(=O)C(C)(C)CCCCC(CCCCC(C)(C)C(=O)OCC(CCCCC)CCCCCCC)OC(=O)CCCN(C)C (stereo not shown) [Compound 123] | 92.27 | – | 84.98 | 0.05
CCCCCCCCCOC(=O)C(C)(C)CCCCCCC(CCCCCCC(C)(C)C(=O)OCC(CCCCC)CCCCCCC)OC(=O)CCCN(C)C (stereo not shown) [Compound 125] | 89.45 | – | 95.69 | 0.07
CCCCCCCCCOC(=O)C(C)(C)CCCCCCC(CCCCCCC(C)(C)C(=O)OCC(CCCCC)CCCCCCC)OC(=O)CCCCN(C)C (stereo not shown) [Compound 126] | 94.35 | – | 133.76 | 0.06
CCCCCCC(CCCCCC)CCOC(=O)CCC(C)(C)CCCC(CCCC(C)(C)CCC(=O)OCCC(CCCCCC)CCCCCC)OC(=O)CCCN(C)C [Compound 128] | 79.88 | – | 83.10 | 0.05
CCCCCCCC(CCCCCCC)COC(=O)CCC(C)(C)CCCC(CCCC(C)(C)CCC(=O)OCC(CCCCCCC)CCCCCCC)OC(=O)CCCN(C)C [Compound 129] | 57.87 | – | 112.08 | 0.06
CCCCCCCCCOC(=O)CCCCCCC(CCCCCCC(=O)OCCCCCCCCC)OC(=O)CCCN(C)C [Compound D1, reference compound] | 97.08 | – | 131.2 | 0.18
CCCCCCCCCOC(=O)CCCCCCC(CCCCCCC(=O)OCC(CCCCC)CCCCCCC)OC(=O)CCCN(C)C (stereo not shown) [Compound D2, reference compound] | 79.63 | – | 245.33 | 0.20
